In patent US20250313563A1, “GLYCOGEN SYNTHASE KINASE 3 INHIBITORS AND USES THEREOF” (The Broad Institute, Inc., priority 2022, published 2025):
Where two headings read alike, the source gives them in different places. Each block holds one molecule with its values, some of them ahead of it.

Key:
[1] = molecular target: GSK3α (GST-full length GSK3α) (Homo sapiens (Human), UniProt P49840); experiment: GSK3α TR-FRET kinase assay; assay type: biochemical
Summary of the method: (§1)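 In this time-resolved FRET format, kinase reactions contained 200 nM biotinylated, S645-phosphorylated glycogen synthase 631-650 peptide and either isoform-specific ATP (2 μM GSK3b, 4 μM GSK3α) or 1 mM ATP. They were quenched with EDTA after 100 min at ambient temperature. Inhibition curves gave IC50 values.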

[2] = molecular target: GSK3b (GST-full length GSK3b) (Homo sapiens (Human), UniProt P49841); experiment: GSK3b TR-FRET kinase assay; assay type: biochemical
Summary of the method: as §1

[3] = 1 nM GSK3α, 4 μM ATP, 30 minute preincubation, geometric mean, read-out: GSK3-A TR-FRET BIOCHEMICAL (TR-FRET), GMean, IC50
[4] = 1 nM GSK3b, 2 μM ATP, 30 minute preincubation, geometric mean, read-out: GSK3-B TR-FRET BIOCHEMICAL (TR-FRET), GMean, IC50
[5] = 1 nM GSK3α, 4 μM ATP, 30 minute preincubation, Table 16, read-out: GSK3-A TR-FRET BIOCHEMICAL (TR-FRET), IC50
[6] = 1 nM GSK3b, 2 μM ATP, 30 minute preincubation, Table 16, read-out: GSK3-B TR-FRET BIOCHEMICAL (TR-FRET), IC50
[7] = 1 nM GSK3α, 4 μM ATP, 30 minute preincubation, Table 16, read-out: GSK3-A TR-FRET BIOCHEMICAL (TR-FRET)
[8] = 1 nM GSK3b, 2 μM ATP, 30 minute preincubation, Table 16, read-out: GSK3-B TR-FRET BIOCHEMICAL (TR-FRET)
[9] = 1 nM GSK3α, 4 μM ATP, 30 minute preincubation, read-out: GSK3-A TR-FRET BIOCHEMICAL (TR-FRET), IC50
[10] = 1 nM GSK3b, 2 μM ATP, 30 minute preincubation, read-out: GSK3-B TR-FRET BIOCHEMICAL (TR-FRET), IC50
[11] = GSK3-A (TR-FRET 1 mM ATP), GMean, IC50, 1 mM ATP, geometric mean
[12] = GSK3-B (TR-FRET 1 mM ATP), GMean, IC50, 1 mM ATP, geometric mean
[13] = read-out: GSK3-A (TR-FRET 1 mM ATP), GMean, IC50, 1 mM ATP, geometric mean
[14] = read-out: GSK3-B (TR-FRET 1 mM ATP), GMean, IC50, 1 mM ATP, geometric mean

GSK3b (GST-full length GSK3b), sequence (P49841 whole entry): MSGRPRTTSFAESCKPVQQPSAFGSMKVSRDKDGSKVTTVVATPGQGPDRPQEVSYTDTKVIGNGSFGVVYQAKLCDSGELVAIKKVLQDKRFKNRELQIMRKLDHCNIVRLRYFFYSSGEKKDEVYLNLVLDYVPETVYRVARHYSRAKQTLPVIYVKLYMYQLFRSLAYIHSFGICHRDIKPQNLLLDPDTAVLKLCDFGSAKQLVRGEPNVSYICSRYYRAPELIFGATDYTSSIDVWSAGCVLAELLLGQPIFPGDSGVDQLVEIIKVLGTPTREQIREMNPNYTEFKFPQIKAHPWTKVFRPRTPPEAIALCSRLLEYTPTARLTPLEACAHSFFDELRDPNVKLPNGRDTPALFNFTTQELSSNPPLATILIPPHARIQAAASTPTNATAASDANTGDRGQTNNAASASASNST
GSK3α (GST-full length GSK3α), sequence (P49840 whole entry, canonical isoform): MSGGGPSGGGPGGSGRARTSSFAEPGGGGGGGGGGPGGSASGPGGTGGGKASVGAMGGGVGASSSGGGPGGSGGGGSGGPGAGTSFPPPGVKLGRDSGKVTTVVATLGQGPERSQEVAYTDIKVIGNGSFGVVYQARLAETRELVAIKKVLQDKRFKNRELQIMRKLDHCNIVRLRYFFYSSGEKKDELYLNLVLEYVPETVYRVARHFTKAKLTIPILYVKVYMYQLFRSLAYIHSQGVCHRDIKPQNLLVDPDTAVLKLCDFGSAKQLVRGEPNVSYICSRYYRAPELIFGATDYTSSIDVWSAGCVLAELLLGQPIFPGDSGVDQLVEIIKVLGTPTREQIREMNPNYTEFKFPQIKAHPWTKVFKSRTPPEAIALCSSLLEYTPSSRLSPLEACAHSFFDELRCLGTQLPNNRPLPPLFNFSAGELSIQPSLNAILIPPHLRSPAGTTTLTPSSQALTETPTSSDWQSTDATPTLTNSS

SMILES: CCC1(c2cccc(-c3cc(C)ncc3F)c2)C2=C(CC(C)(C)NC2=O)Nc2n[nH]c(C)c21 (centres unmarked) [Compound 948761]
IC50 [1, 3]: ≤ 100 nM
IC50 [2, 4]: ≤ 100 nM

SMILES: CC[C@]1(c2cccc(-c3cn(C)nc3C(C)C)c2)C2=C(CC(C)(C)CC2=O)Nc2n[nH]c(C)c21 [Compound 913040]
IC50 [1, 5]: 100 to 1000 nM
IC50 [2, 6]: 1000 to 5000 nM

SMILES: CCC1(c2cccc(-c3cnn(C)c3)c2)C2=C(CC(C)(C)CC2=O)Nc2n[nH]c(C)c21 (centres unmarked) [Compound 913031]
IC50 [1, 5]: ≤ 100 nM
IC50 [2, 6]: ≤ 100 nM

SMILES: C[C@H]1CCC[C@@]12C1=C(CC(C)(C)CC1=O)Nc1n[nH]cc12 [Compound 874320]
IC50 [1, 5]: 1000 to 5000 nM
IC50 [2, 6]: 1000 to 5000 nM

SMILES: COc1cccc(S(=O)(=O)N2CC[C@@]3(C2)C2=C(CC(C)(C)CC2=O)Nc2n[nH]cc23)c1 [Compound 951790]
IC50 [1, 7]: ≤ 100 nM
IC50 [2, 8]: ≤ 100 nM

SMILES: Cc1ccc(C)c(C(=O)N2CC3(C2)CC2(CO3)C3=C(CC(C)(C)CC3=O)Nc3n[nH]cc32)c1 (centres unmarked) [Compound 947285]
IC50 [1, 9]: ≤ 100 nM
IC50 [2, 10]: 100 to 1000 nM

SMILES: CC(C)S(=O)(=O)N1CCC2(CC1)C1=C(CC(C)(C)CC1=O)Nc1n[nH]cc12 [Compound 913129]
IC50 [1, 5]: ≤ 100 nM
IC50 [1, 11]: ≤ 100 nM
IC50 [2, 6]: ≤ 100 nM
IC50 [2, 12]: 100 to 1000 nM

SMILES: CC[C@]1(c2cccc(-c3cn(C)nc3C)c2)C2=C(CC(C)(C)CC2=O)Nc2n[nH]c(C)c21 [Compound 913035]
IC50 [1, 5]: ≤ 100 nM
IC50 [1, 13]: ≤ 100 nM
IC50 [2, 6]: ≤ 100 nM
IC50 [2, 14]: 100 to 1000 nM

SMILES: CC1(C)CC2=C(C(=O)N1)[C@](C)(c1cccc(S(C)(=O)=O)c1)c1c(n[nH]c1C1CC1)N2 [Compound 114744]
IC50 [1, 11]: > 5000 nM
IC50 [2, 12]: > 5000 nM

SMILES: COc1cc(S(=O)(=O)N2CCC3(CC2)C2=C(CC(C)(C)CC2=O)Nc2n[nH]cc23)ccc1Cl [Compound 945669]
IC50 [1, 7]: ≤ 100 nM
IC50 [2, 8]: ≤ 100 nM

SMILES: C[C@@H]1COCC[C@]12C1=C(CC(C)(C)CC1=O)Nc1n[nH]cc12 [Compound 924310]
IC50 [1, 5]: > 5000 nM
IC50 [2, 6]: > 5000 nM

SMILES: CC1(C)CC(=O)C2=C(C1)Nc1n[nH]cc1C21CCN(S(=O)(=O)c2ccc(C(F)(F)F)cc2)CC1 [Compound 947256]
IC50 [1, 7]: ≤ 100 nM
IC50 [2, 8]: ≤ 100 nM

SMILES: CC[C@@]1(c2ccccc2)C2=C(CC(C)(C)[C@@H](F)C2=O)Nc2n[nH]cc21 [Compound 826768]
IC50 [1, 3]: ≤ 100 nM
IC50 [2, 4]: 100 to 1000 nM

SMILES: CC1(C)CC(=O)C2=C(C1)Nc1n[nH]cc1C21CCN(S(=O)(=O)c2ccccc2C(F)F)CC1 [Compound 945657]
IC50 [1, 7]: ≤ 100 nM
IC50 [1, 11]: 100 to 1000 nM
IC50 [2, 8]: 100 to 1000 nM
IC50 [2, 12]: 1000 to 5000 nM

SMILES: CC1(C)CC(=O)C2=C(C1)Nc1n[nH]cc1[C@@]21CCOC2(CCCC2)C1 [Compound 907326]
IC50 [1, 9]: 100 to 1000 nM
IC50 [2, 10]: 1000 to 5000 nM

SMILES: CC1CCCC12C1=C(CC(C)(C)CC1=O)Nc1n[nH]cc12 (centres unmarked) [Compound 826765]
IC50 [1, 7]: 100 to 1000 nM
IC50 [2, 8]: 1000 to 5000 nM

SMILES: CCC1(c2cccc(-c3ccnc4c3CCC4)c2)C2=C(CC(C)(C)NC2=O)Nc2n[nH]c(C(F)(F)F)c21 (centres unmarked) [Compound 947862]
IC50 [1, 3]: ≤ 100 nM
IC50 [1, 13]: ≤ 100 nM
IC50 [2, 4]: ≤ 100 nM
IC50 [2, 14]: 100 to 1000 nM

SMILES: CC1(C)CC(=O)C2=C(C1)Nc1n[nH]cc1C21COC2(CN(C(=O)C(F)(F)F)C2)C1 (centres unmarked) [Compound 947280]
IC50 [1, 9]: ≤ 100 nM
IC50 [2, 10]: ≤ 100 nM

SMILES: Cc1ncc(S(=O)(=O)N2CCC3(CC2)C2=C(CC(C)(C)CC2=O)Nc2n[nH]cc23)o1 [Compound 947611]
IC50 [1, 7]: ≤ 100 nM
IC50 [1, 11]: 100 to 1000 nM
IC50 [2, 8]: ≤ 100 nM
IC50 [2, 12]: 100 to 1000 nM

SMILES: Cc1cc(C)cc(C(=O)N2CC3(C2)CC2(CO3)C3=C(CC(C)(C)CC3=O)Nc3n[nH]cc32)c1 (centres unmarked) [Compound 947296]
IC50 [1, 9]: ≤ 100 nM
IC50 [2, 10]: ≤ 100 nM

Results, then the molecule that gave them:

IC50 [1, 3]: 1000 to 5000 nM
IC50 [2, 4]: > 5000 nM
SMILES: CCC1(c2cccc(-c3ccnn3C)c2)C2=C(CC3(CCCOC3)NC2=O)Nc2n[nH]cc21 (centres unmarked) [Compound 948366]

IC50 [1, 3]: ≤ 100 nM
IC50 [2, 4]: 100 to 1000 nM
SMILES: CCC1(c2cccc(Br)c2)C2=C(CC(C)(C)C(F)C2=O)Nc2n[nH]cc21 (centres unmarked) [Compound 835314]

IC50 [1, 5]: ≤ 100 nM
IC50 [2, 6]: 100 to 1000 nM
SMILES: CCC1(c2cccc(N(C)c3ccc(F)nc3)c2)C2=C(CC(C)(C)CC2=O)Nc2n[nH]cc21 (centres unmarked) [Compound 917152]

IC50 [1, 5]: > 5000 nM
IC50 [2, 6]: > 5000 nM
SMILES: CC[C@@]1(c2cccc(-c3cnn(-c4cccnc4)c3)c2)C2=C(CC(C)(C)NC2=O)Nc2n[nH]cc21 [Compound 949515]

IC50 [1, 5]: 100 to 1000 nM
IC50 [2, 6]: 1000 to 5000 nM
SMILES: CCC1(c2cccc(-c3cnn(CC4CCOC4)c3)c2)C2=C(CC(C)(C)NC2=O)Nc2n[nH]cc21 (centres unmarked) [Compound 951836]

IC50 [1, 7]: ≤ 100 nM
IC50 [2, 8]: ≤ 100 nM
SMILES: CCC1(c2cccc(-c3cncn3C)c2)C2=C(CC(C)(C)CC2=O)Nc2n[nH]cc21 (centres unmarked) [Compound 943533]

IC50 [1, 7]: ≤ 100 nM
IC50 [1, 13]: ≤ 100 nM
IC50 [2, 8]: ≤ 100 nM
IC50 [2, 14]: 100 to 1000 nM
SMILES: CCC1(c2cccc(-c3ccnc4c3CCCC4)c2)C2=C(CC(C)(C)CC2=O)Nc2n[nH]cc21 (centres unmarked) [Compound 944033]

IC50 [1, 13]: 1000 to 5000 nM
IC50 [2, 4]: 100 to 1000 nM
IC50 [2, 14]: > 5000 nM
SMILES: CCC1(c2cccc(C)c2)C2=C(CC(C)(C)CC2=O)Nc2n[nH]cc21 (centres unmarked) [Compound 789560]

IC50 [1, 3]: ≤ 100 nM
IC50 [2, 4]: 100 to 1000 nM
SMILES: CCC1(c2cccc(C(F)(F)F)c2)C2=C(CCN(c3ccccc3C)C2=O)Nc2n[nH]cc21 (centres unmarked) [Compound 949128]

IC50 [1, 3]: 1000 to 5000 nM
IC50 [2, 4]: > 5000 nM
SMILES: CC[C@@]1(c2cccc(OC)c2)C2=C(CC(C)(C)CC2=O)Nc2n[nH]cc21 [Compound 811561]

IC50 [1, 3]: ≤ 100 nM
IC50 [1, 13]: 100 to 1000 nM
IC50 [2, 4]: 100 to 1000 nM
IC50 [2, 14]: > 5000 nM
SMILES: CCC1(c2cccc(C(F)(F)F)c2)C2=C(CCN(c3cncnc3)C2=O)Nc2n[nH]cc21 (centres unmarked) [Compound 948379]

IC50 [1, 13]: 100 to 1000 nM
IC50 [2, 14]: 1000 to 5000 nM
SMILES: CCC1(c2cccc(N(c3cccnc3)C(C)C)c2)C2=C(CC(C)(C)CC2=O)Nc2n[nH]cc21 (centres unmarked) [Compound 917086]

IC50 [1, 3]: ≤ 100 nM
IC50 [2, 4]: ≤ 100 nM
SMILES: CCC1(c2cccc(-c3cncn3C)c2)C2=C(CC(C)(C)NC2=O)Nc2n[nH]c(C(F)(F)F)c21 (centres unmarked) [Compound 948180]

IC50 [1, 3]: 1000 to 5000 nM
IC50 [2, 4]: > 5000 nM
SMILES: CC[C@]1(c2cccc(C(F)(F)F)c2)C2=C(CCN(c3cnc(OC)nc3)C2=O)Nc2n[nH]cc21 [Compound 949127]

IC50 [1, 3]: 100 to 1000 nM
IC50 [2, 4]: > 1670 nM
SMILES: CC[C@]1(c2ccccc2)C2=C(C[C@@H](C(F)(F)F)CC2=O)Nc2n[nH]cc21 [Compound 806608]

IC50 [1, 7]: 1000 to 5000 nM
IC50 [2, 8]: > 5000 nM
SMILES: CC[C@@]1(c2cccc(-c3ccnc(CCO)c3)c2)C2=C(CC(C)(C)CC2=O)Nc2n[nH]cc21 [Compound 947816]

IC50 [1, 7]: 1000 to 5000 nM
IC50 [2, 8]: > 5000 nM
SMILES: CCC1(c2cccc(-c3ccnc(C)c3)c2)C2=C(Nc3n[nH]cc31)C(F)C(C)(C)CC2=O (centres unmarked) [Compound 946101]

IC50 [1, 5]: ≤ 100 nM
IC50 [2, 6]: 100 to 1000 nM
SMILES: CCC1(c2cccc(N(C)c3cccc(F)n3)c2)C2=C(CC(C)(C)CC2=O)Nc2n[nH]cc21 (centres unmarked) [Compound 918274]

IC50 [1, 7]: ≤ 100 nM
IC50 [2, 8]: 100 to 1000 nM
SMILES: CCC1(c2cccc(-c3cc(C)ncc3OC)c2)C2=C(CC(C)(C)CC2=O)Nc2n[nH]cc21 (centres unmarked) [Compound 945468]

IC50 [1, 5]: ≤ 100 nM
IC50 [2, 6]: ≤ 100 nM
SMILES: CCN(c1cccc(C2(CC)C3=C(CC(C)(C)CC3=O)Nc3n[nH]cc32)c1)c1ncccn1 (centres unmarked) [Compound 919840]
